Test results from PMC7461116, “Synthesis, Anticonvulsant and Antinociceptive Activity of New Hybrid Compounds: Derivatives of 3-(3-Methylthiophen-2-yl)-pyrrolidine-2,5-dione” (International Journal of Molecular Sciences, 2020).
Structures can show the parent of a compound that is named as a salt. Where two headings read alike, the source gives them in different places.

Tests used:
GABA Transporter (GAT) = assay: Radioligand binding, [3H]GABA, Cerep; details: 100 µM, rat cerebral cortex synaptoneurosomal preparations
Procedure: (§1) Binding and functional studies were performed commercially in Cerep Laboratories (Poitiers, France) using testing procedures described elsewhere (Na^+ channel-site 2 [27], L-type Ca^2+ channel, dihydropyridine site, TRPV1 (VR1) (h) (antagonist effect), GABA transporter (GAT)). All experiments were performed in duplicate.

[1] = system: acetic acid-induced writhing behavior; assay: Acetic acid-induced writhing test; type: in vivo; details: mice, ip
Procedure: Mice were injected with the test compound or vehicle by intraperitoneally route (ip), and 30 min later, 0.9 % acetic acid solution was injected ip and the animals were placed into the glass beakers. The writhing response (lengthwise stretching of the torso, concave arching of the back, and extension of the hind limbs) was recorded for 30 min. The analgesic effect of the tested substances was determined by a decrease in the number of writhes observed and the results were expressed as percent inhibition of writhing behavior (as index of analgesia), and was calculated using the following formula: %Inhibition=(NA−NB)/NA×100, where NA—number of writhes in vehicle group, NB—number of writhes in drug-treated group.

[2] = Hepatotoxicity, PrestoBlue viability assay; type: cell-based, human; details: human, Hep G2 cells, 1–100 μM, read-out: Hep G2 cell viability
Procedure: (§2) Hepatotoxicity of tested compounds was assessed in PrestoBlue (Thermo Fisher Scientific, Waltham, MA, USA) Experiments on microplate reader (SpectraMax® iD3, Molecular Devices, San Jose, CA, USA) using human hepatocellular carcinoma cells (Hep G2) ATCC® […]. The cells were cultured in standard conditions (37 °C, 5% CO2), in Dulbecco’s Modified Eagle’s Medium-high glucose, (DMEM, Gibco, Thermo Fisher Scientific, Waltham, MA, USA) supplemented with 10% fetal bovine serum (Thermo Fisher Scientific, Waltham, MA, USA), with added 100 IU/mL penicillin (Sigma Aldrich, Steinheim, Germany) and 100 µg/mL streptomycin (Sigma Aldrich). PrestoBlue reagent is a resazurin-based solution that functions as a cell viability indicator. Metabolically active cells are capable of reducing the PrestoBlue reagent, with the colorimetric changes used as an indicator to quantify the viability of cells in culture. This change can be determined by measuring the fluorescence. After 24 h of incubation with the compounds PrestoBlue reagent was added to wells of a microplate. After 20 min of incubation at 37 °C, the fluorescence intensity (EX 530; EM 580 nm) was measured in a plate reader. Viability values were calculated as a percentage of live cells with respect to the control sample (DMSO). The negative control was medium without cells. Astemizole was used as a reference substance.

[3] = system: PTZ-induced clonic seizures; assay: Subcutaneous pentylenetetrazole (scPTZ) seizure test; type: in vivo; details: mice, 100 mg/kg
Procedure: Clonic convulsions were induced by the subcutaneous (sc) administration of PTZ at a dose of 100 mg/kg. After PTZ injection, the mice were placed separately and observed during the next 30 min for the occurrence of clonic seizures. Clonic seizures were defined as clonus of the whole body lasting more than 3 s, with an accompanying loss of righting reflex. The latency to first clonus, the number of seizure episodes, and mortality rate were noted and compared with vehicle-treated and drug-treated groups. The absence of clonic convulsions within the observed time period was interpreted as the compound’s ability to protect against PTZ-induced seizures.

[4] = Rotarod test (acute neurotoxicity, NT); details: mouse, in vivo, mice ip
[5] = system: Voltage-Sensitive Na+ Channel (site 2); assay: Radioligand binding, [3H]BTX, Cerep; details: 100 µM, rat cerebral cortex synaptoneurosomal preparations
Procedure: as §1

[6] = system: 6 Hz psychomotor seizures; assay: 6 Hz (32 mA) psychomotor seizure test; type: in vivo, mice; details: for ED50 / responders at 100 mg/kg: Mus musculus; for ED50 / PI (TD50/ED50), 6 Hz: mice ip; for ED50: 95% confidence limit in brackets; for responders at 100 mg/kg / 6 Hz: tested animals protected: ip, 0.5 h
Description: Psychomotor seizures were induced via corneal stimulation (6 Hz, 32 mA, 0.2 ms rectangular pulse width, 3 s duration) using a constant-current device (ECT Unit 57800, Ugo Basile, Italy). A drop of 1% solution of lidocaine hydrochloride was applied to the mouse corneas before stimulation to provide local anesthesia and ensure optimal current conductivity. After the electrical stimulation, mice were gently released and observed for the presence or absence of seizure activity, being characterized by immobility associated with rearing, forelimb clonus, twitching of the vibrissae, stun, and Straub-tail. Lack of the above symptoms or their cessation within 10 s from the stimulation was considered as absence of seizure activity. The initial anticonvulsant screening of the tested compounds was performed at a fixed dose of 100 mg/kg (four mice per group). Then ED50 was calculated for active compounds as described above.

[7] = system: latency time to pain reaction; assay: Hot plate test; type: in vivo; details: mice, ip, 30 mg/kg
Procedure: The hot plate test was carried out based on the Eddy and Leimbach (1953) method. In this test, the apparatus was equipped with an electrically heated surface with a temperature controller that maintains surface temperature to a set point. Herein, the temperature was set at 55 °C. The animals were treated ip either with the test compounds, or vehicle 30 min before placing the animal on a hot plate apparatus. Latency time to pain reaction, i.e., the time until the animal licked its back paws or jumped was recorded by means of the stopwatch.

[8] = system: motor impairment on rotarod; assay: Rotarod test (acute neurotoxicity, NT); type: in vivo; details: ip, 100 mg/kg, 0.5 h
Procedure: In this test mice were trained to balance on an accelerating rotarod that rotated at 10 rotations per minute (Rotarod apparatus, May Commat RR0711, Turkey; rod diameter: 3 cm). During the training session, the animals were placed on a rotating rod for 3 min with an unlimited number of trials. Proper experiment was conducted 24 h after the training trial. On the test day, trained mice were intraperitoneally pretreated with the test compound at a dose of 100 mg/kg and just before the MES test were tested on the rotarod. Neurotoxicity was indicated by the inability of the animal to maintain equilibration on the rod for 1 min. […] Each group consisted of six animals.

TRPV1 receptor = molecular target: T1, TRPV1 receptor (Homo sapiens, UniProt Q8NER1); assay: TRPV1 (VR1) (h) antagonist effect, Cerep; type: biochemical; details: 100 µM
T1 construct: Cerep Laboratories (Poitiers, France)
T1 sequence (Q8NER1 whole entry): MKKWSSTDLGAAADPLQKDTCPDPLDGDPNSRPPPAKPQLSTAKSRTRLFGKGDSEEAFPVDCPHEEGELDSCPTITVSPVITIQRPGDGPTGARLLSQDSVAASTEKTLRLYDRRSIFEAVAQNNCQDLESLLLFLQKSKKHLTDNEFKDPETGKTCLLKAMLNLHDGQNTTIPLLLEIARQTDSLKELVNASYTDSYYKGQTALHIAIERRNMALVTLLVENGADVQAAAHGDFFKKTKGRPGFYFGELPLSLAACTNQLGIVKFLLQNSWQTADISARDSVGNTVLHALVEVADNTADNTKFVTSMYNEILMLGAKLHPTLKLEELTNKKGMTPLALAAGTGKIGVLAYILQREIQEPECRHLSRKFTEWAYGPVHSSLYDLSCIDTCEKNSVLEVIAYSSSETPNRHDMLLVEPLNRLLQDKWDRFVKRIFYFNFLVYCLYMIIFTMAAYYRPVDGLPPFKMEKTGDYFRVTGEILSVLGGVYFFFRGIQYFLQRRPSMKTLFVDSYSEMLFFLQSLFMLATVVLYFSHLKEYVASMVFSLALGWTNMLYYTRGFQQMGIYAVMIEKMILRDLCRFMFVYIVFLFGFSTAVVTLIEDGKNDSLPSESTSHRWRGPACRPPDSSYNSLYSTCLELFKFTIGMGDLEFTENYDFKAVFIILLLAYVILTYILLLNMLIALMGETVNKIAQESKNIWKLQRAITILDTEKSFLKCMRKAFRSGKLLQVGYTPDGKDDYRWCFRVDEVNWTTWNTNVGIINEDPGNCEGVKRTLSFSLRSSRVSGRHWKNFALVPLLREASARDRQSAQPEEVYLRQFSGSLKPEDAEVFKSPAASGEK
Procedure: as §1

[9] = system: Voltage-Sensitive Ca2+ Channel L-type (dihydropyridine site); assay: Radioligand binding, [3H]nitrendipine, Cerep; details: 100 µM, rat cerebral cortex synaptoneurosomal preparations
Procedure: as §1

[10] = system: maximal electroshock seizures; assay: Maximal electroshock seizure (MES) test; type: in vivo, mice; details: for responders at 100 mg/kg / ED50: Mus musculus; for responders at 100 mg/kg / MES: tested animals protected: ip, 0.5 h; for ED50: mice ip, 95% confidence limit in brackets
Procedure: The MES test was performed as previously described. Stimuli (25 mA, 0.2 s, 50 Hz) were generated by a constant current stimulator (Rodent shocker, Type 221, Hugo Sachs Elektronik, Germany) and delivered with the use of auricular electrodes. During the stimulation, each mouse was restrained manually, and immediately after the stimulation gently released for observation. The endpoint was the tonic extension of the hind limbs. Mice not displaying hindlimb tonic extension were considered to be protected from seizure. The initial anticonvulsant screening of the tested compounds was performed at a fixed dose of 100 mg/kg (four mice per group). […] To evaluate the ED50, at least three groups of animals were injected with various doses of tested compounds. Each group consisted of six animals.

Hep G2 cells = assay: Hepatotoxicity, PrestoBlue viability assay; type: cell-based, human; details: 24 h; for Hepatotoxicity in Hep G2 cells, in words: 1 and 10 μM; for Inhibition of viability of Hep G2 cells: 100 and 50 μM
Procedure: as §2

[11] = system: maximal electroshock seizures; details: cited from earlier work
[12] = system: 6 Hz psychomotor seizures; details: mice ip, reference AEDs, cited from earlier work; for 6 Hz ED50: 32 mA
[13] = mice, 100 mg/kg, 32 mA, read-out: 6 Hz: number of mice protected/number of mice tested (converted)
[14] = mice, 100 mg/kg, read-out: MES: number of mice protected/number of mice tested (converted)
[15] = read-out: 6 Hz: number of mice protected/number of mice tested
[16] = read-out: MES: number of mice protected/number of mice tested

Compound | Reduction of number of writhes (inhibition of writhing behavior) ([1]; 30 mg/kg) | TD50 at 0.5 h [4] | % Inhibition of Control Specific Binding, Voltage-Sensitive Na+ Channel (site 2) [5] | ED50 ([6]; 32 mA) | responders at 100 mg/kg [6, 13] | 6 Hz: tested animals protected ([6]; mice, 100 mg/kg, 32 mA) | Hot plate: prolongation of latency time to pain reaction [7] | NT: number of mice with motor impairment/number of mice tested [8] | TRPV1 antagonist effect (TRPV1 receptor) | % Inhibition of Control Specific Binding, Voltage-Sensitive Ca2+ Channel L-typ [9] | responders at 100 mg/kg [10, 14] | other results
Cc1ccsc1C1CC(=O)N(CCN2CCOCC2)C1=O (racemic) [Compound 3, (R,S)-3-(3-Methylthiophen-2-yl)-1-(2-morpholinoethyl)pyrrolidine-2,5-dione hydrochloride] | 34% | > 200 mg/kg | 15.6% | 74.3 mg/kg | 100% | 100% | inactive | 0/4 | 14.8% | −1.1% | 25% | % Inhibition of Control Specific Binding, GABA Transporter (GAT) (GABA Transporter (GAT)): −1.1%; Reduction of number of writhes (inhibition of writhing behavior) ([1]; 45 mg/kg): 39%; viability at 24 h [2]: > 94%; scPTZ: tested animals protected [3]: 50%; scPTZ: latency time to first seizure episode ([3]; control 436.8 ± 91.94 s): 1435 ± 234.9 s; scPTZ: prolongation of latency time to first seizure episode ([3]; vs control, p < 0.001): 228%
Cc1ccsc1C1CC(=O)N(CCCN2CCOCC2)C1=O (racemic) [Compound 4, (R,S)-3-(3-Methylthiophen-2-yl)-1-(3-morpholinopropyl)pyrrolidine-2,5-dione hydrochloride] | 29.8% | < 200 mg/kg | 42.1% | 75.6 mg/kg | – | at least 75% | inactive | 0/4 | – | 39.7% | – | % Inhibition of Control Specific Binding, GABA Transporter (GAT) (GABA Transporter (GAT)): −3.2%; viability at 24 h [2]: > 94%; scPTZ: effect in words [3]: no significant effect; responders at 100 mg/kg [6, 15]: 75%; PI (TD50/ED50), 6 Hz [6]: < 2.65; responders at 100 mg/kg [10, 16]: 75%; ED50 [10]: 62.1 mg/kg; MES: tested animals protected ([10]; mice, 100 mg/kg): 75%
Cc1ccsc1C1CC(=O)N(CCCN2CCN(c3cccc(C(F)(F)F)c3)CC2)C1=O (racemic) [Compound 6, (R,S)-3-(3-Methylthiophen-2-yl)-1-(3-(4-(3-(trifluoromethyl)phenyl)piperazin-1-yl)propyl)pyrrolidine-2,5-dione hydrochloride] | 27% | < 100 mg/kg | 96.7% | 78.3 mg/kg | – | at least 75% | 49% | 4/4 | 74.8% | 69.9% | – | Hepatotoxicity in Hep G2 cells, in words (Hep G2 cells): no hepatotoxicity; Inhibition of viability of Hep G2 cells (Hep G2 cells): 13–28%; responders at 100 mg/kg [6, 15]: 75%; PI (TD50/ED50), 6 Hz [6]: < 1.28; responders at 100 mg/kg [10, 16]: 25%
Cc1ccsc1C1CC(=O)N(CCCN2CCN(c3ccc(Cl)c(Cl)c3)CC2)C1=O (racemic) [Compound 9, (R,S)-1-(3-(4-(3,4-Dichlorophenyl)piperazin-1-yl)propyl)-3-(3-methylthiophen-2-yl)pyrrolidine-2,5-dione hydrochloride] | 61.44% | > 300 mg/kg | 78.8% | > 130 mg/kg | 50% | – | 43% | 0/4 | 109.5% | −9.5% | 50% | Hepatotoxicity in Hep G2 cells, in words (Hep G2 cells): no hepatotoxicity; Inhibition of viability of Hep G2 cells (Hep G2 cells): 13–28%; ED50 [10]: > 130 mg/kg; MES: tested animals protected ([10]; mice, 100 mg/kg): 50%
Cc1ccsc1C1CC(=O)N(CC(=O)N2CCN(c3cccc(Cl)c3)CC2)C1=O (racemic) [Compound 14, (R,S)-1-(2-(4-(3-Chlorophenyl)piperazin-1-yl)-2-oxoethyl)-3-(3-methylthiophen-2-yl)pyrrolidine-2,5-dione] | – | > 300 mg/kg | – | 153 mg/kg | 50% | – | – | 0/4 | – | – | 0% | scPTZ: effect in words [3]: no significant effect
CCC1(C)CC(=O)NC1=O (centres unmarked) [ETX, ethosuximide] | – | – | – | – | – | – | – | – | – | – | – | MES: protection in words [11]: did not show protection; MES ED50 ([11]; mice ip, reference AEDs): > 500 mg/kg; 6 Hz ED50 [12]: 221.7 (183.0–268.5) mg/kg; PI (TD50/ED50), 6 Hz [12]: 3.2 (6 Hz)
CCCC(CCC)C(=O)O [VPA, valproic acid] | – | – | – | – | – | – | – | – | – | – | – | PI (TD50/ED50), MES ([11]; mice ip, reference AEDs): 1.7; 6 Hz ED50 [12]: 130.6 (117.6–145.2) mg/kg; PI (TD50/ED50), 6 Hz [12]: 3.3
